Experiments:
Acute toxicity = type: in vivo, mice; conditions: mouse, in vivo, ip; administered intraperitonealy; 5 week old female ICR mice; read-out: LD₅₀ after one week
Protocol: (§1) (-)Epigallocatechin gallate was tested with respect to its acute toxicity. Where (-)epigallocatechin gallate was perorally administered to 6 week ICR male mice, LD₅₀ after one week was 2314mg/kg. Where (-)epigallocatechin was administered intraperitonealy to 5 week old female ICR mice, LD₅₀ after one week was 150mg/kg.

ICR mice = assay: Acute toxicity; type: in vivo; conditions: perorally administered; 6 week ICR male mice; 10080 min
Protocol: as §1

SMILES	LD50 at 168 h (Acute toxicity) [mg/kg]	LD₅₀ after one week (ICR mice) [mg/kg]
Oc1cc(O)c2c(c1)O[C@H](c1cc(O)c(O)c(O)c1)[C@H](O)C2 [(-)epigallocatechin, (-) Epigallocatechin]	150	
O=C(O[C@@H]1Cc2c(O)cc(O)cc2O[C@@H]1c1cc(O)c(O)c(O)c1)c1cc(O)c(O)c(O)c1 [(-)epigallocatechin gallate, (-) Epigallocatechin gallate]		2314

— patent EP0573682A1, “Tea polyphenols as anti-hyperglycemic agents” (MITSUI NORIN CO., LTD., priority 1992, dated 1993)
